“And” between values parts separate entries of the source, which are not always exact repeats. Equal entries are not always repeated.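 Assay format: 96-well plates, 48-hour exposure. At the GI50, growth is halved. TGI: total growth inhibition.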
What was measured:
Experiment in all cases: inhibition of tumour cell growth, NCI panel, 48 h
786-0 renal = tested on: 786-0 renal
MDA-MB-231 breast = tested on: MDA-MB-231 breast
COLO 205 colon = tested on: COLO 205 colon
RXF 393 renal = tested on: RXF 393 renal
TK-10 renal = tested on: TK-10 renal
RPMI-8226 leukemia = tested on: RPMI-8226 leukemia
UO-31 renal = tested on: UO-31 renal
HCT-15 colon = tested on: HCT-15 colon
SK-OV-3 ovarian = tested on: SK-OV-3 ovarian
ACHN renal = tested on: ACHN renal

SMILES | GI50 (786-0 renal) | TGI (786-0 renal) | GI50 (MDA-MB-231 breast) | TGI (MDA-MB-231 breast) | GI50 (COLO 205 colon) | TGI (COLO 205 colon) | GI50 (RXF 393 renal) | TGI (RXF 393 renal) | GI50 (TK-10 renal) | TGI (TK-10 renal) | GI50 (RPMI-8226 leukemia) | TGI (RPMI-8226 leukemia) | GI50 (UO-31 renal) | TGI (UO-31 renal) | GI50 (HCT-15 colon) | TGI (HCT-15 colon) | GI50 (SK-OV-3 ovarian) | TGI (SK-OV-3 ovarian) | GI50 (ACHN renal) | TGI (ACHN renal)
O=C1OCC2=C1C(c1ccc(Cl)c(Cl)c1)c1cc3c(cc1N2CCO)CCC3 (stereo unspecified) | 0.242 µM | 10.2 µM | 0.747 µM | 9.36 µM | 0.175 µM | 0.702 µM | 0.141 µM | 1.46 µM | 0.312 µM | 13.2 µM | 0.237 µM | 15.1 µM | 0.237 µM | 21.2 µM | 0.215 µM | 20.3 µM | 0.211 µM | 6 µM | 0.371 µM | 12.2 µM
COc1cc2c(cc1Nc1nc(Nc3cccc(F)c3C(N)=O)c3cc[nH]c3n1)N(C(=O)CN1CCN(C(C)C)CC1)CC2 | 3.98 µM | 7.53 µM | 3.94 µM | 8.22 µM | 0.666 µM | 3.65 µM | 2.3 µM | 5.77 µM | 2.97 µM | 7.55 µM | 4.58 µM | 10.9 µM | 3.92 µM | 9.74 µM | 4.36 µM | 9.33 µM | 3.85 µM | 7.26 µM | 4.59 µM | 10.2 µM
O=C(Nc1ccccc1)c1cc(S(=O)(=O)Nc2nc3ccccc3o2)c(SCc2ccccc2)cc1Cl | 17.3 µM | 38.2 µM | 18.3 µM | 42.4 µM | 36.7 µM | > 100 µM | 19.7 µM | 47.7 µM | 13.9 µM | 28.2 µM | 15.4 µM | 46.8 µM | 17.8 µM | 48.5 µM | 17 µM | 34 µM | 22.3 µM | 58.7 µM | 18.2 µM | 37 µM
O=S(=O)(/N=c1/scc(-c2ccccc2)n1-c1ccccc1)c1ccc(N2N=C3c4ccccc4CC3C2c2cccs2)cc1 (stereo unspecified) | 64.2 µM | > 100 µM | 52.1 µM | > 100 µM | > 100 µM | > 100 µM | 98.2 µM | > 100 µM | 32.7 µM | 75.3 µM | 51 µM | > 100 µM | > 100 µM | > 100 µM | 67.3 µM | > 100 µM | > 100 µM | > 100 µM | 42.5 µM | > 100 µM
Cc1c(O)c2c(c(O)c1Br)C(=O)C=CC2=O | 1.46 µM | 0.428 µM and 3.02 µM | 1.58 µM | 3.01 µM and 3.48 µM | 0.334 µM | 0.428 µM and 1.45 µM | 0.229 µM | 2.72 µM and 0.582 µM | 0.343 µM | 2.55 µM and 1.15 µM | 0.138 µM | 1.01 µM and 0.436 µM | 1.38 µM | 1.23 µM and 2.95 µM | 0.451 µM | 1.14 µM and 1.94 µM | 14.1 µM | 3.93 µM and 27.1 µM | 0.489 µM | 2.2 µM and 1.83 µM
CC(=O)OC1CC2C3CCC4C[C@@H](NC(=O)C=C(C)C)CC[C@]4(C)C3CC[C@]2(C)[C@H]1C(C)N(C)C (stereo partly specified) | 1.65 µM | 3.17 µM | 2.1 µM | 4.72 µM | 1.51 µM | 3.14 µM | 1.59 µM | 3.66 µM | 5.45 µM | 13.3 µM | 1.66 µM | 5.67 µM | 0.949 µM | 2.95 µM | 0.721 µM | 2.75 µM | 2.79 µM | 7.38 µM | 2.73 µM | 7.36 µM
O=C(Nc1n[nH]c2nnc(-c3cccnc3)cc12)C1CC1 | 3.65 µM | > 25 µM | – | > 25 µM | 7.45 µM | > 25 µM | 0.428 µM | > 17.9 µM | – | > 25 µM | > 25 µM | > 25 µM | 1.65 µM | > 20.3 µM | > 20.3 µM | > 25 µM | 0.621 µM | > 25 µM | 3.88 µM | > 25 µM
N#C[Se]CCCNS(=O)(=O)C1CC2C=CC1C2 (stereo unspecified) | 0.997 µM | 2.33 µM | 1.23 µM | 3.55 µM | 2.3 µM | 5.83 µM | 0.364 µM | 1.34 µM | 0.403 µM | 2.33 µM | 2.17 µM | 5.55 µM | 0.338 µM | 1.43 µM | 1.47 µM | 3.65 µM | 2.77 µM | 5.65 µM | 1.48 µM | 2.85 µM
c1ccc2cc(C[n+]3ccn(CCCCCCCCCCn4cc[n+](Cc5ccc6ccccc6c5)c4)c3)ccc2c1 | 5.33 µM | 32.6 µM | 1.33 µM | 5.3 µM | 0.411 µM | 1.68 µM | 0.822 µM | 3.72 µM | 3.28 µM | 16.9 µM | 0.737 µM | 4.17 µM | 6.14 µM | > 100 µM | 3.76 µM | > 100 µM | 1.36 µM | 6.39 µM | 6.17 µM | 80.3 µM
Clc1ccc(OCc2nnc3n2N=C(c2ccc(Cl)cc2Cl)CS3)cc1 | 32.7 µM | > 100 µM | 14.4 µM | 33.2 µM | 26.3 µM | 86.7 µM | 13.7 µM | 31.8 µM | 15.9 µM | > 100 µM | 21.1 µM | 68.5 µM | 14.8 µM | 34.5 µM | 13.9 µM | 37.1 µM | 42.8 µM | > 100 µM | 20.4 µM | 49.3 µM
CC1(C)[C@@H](OC(=O)CCC(=O)O)CC[C@]2(C)[C@H]3C(=O)C=C4[C@@H]5C[C@@](C)(C(=O)O)CC[C@]5(C)CC[C@@]4(C)[C@]3(C)CC[C@@H]12 | 58.8 µM | 104 µM | 78.8 µM | 171 µM | – | – | 50.5 µM | 66 µM | 65.6 µM | 124 µM | 50.9 µM | 69.9 µM | 60.1 µM | 81.6 µM | 51.1 µM | 78.7 µM | 59.4 µM | 127 µM | 63 µM | 114 µM
O=C1c2ccccc2-c2c1c1ccccc1c(=O)n2CCCNCCCCNCCCN1C(=O)c2ccccc2C2C(=O)c3ccccc3C21 (stereo unspecified) | 0.0786 µM | 0.782 µM | 0.284 µM | 1.04 µM | 0.681 µM | 1.61 µM | 0.0305 µM | 0.823 µM | 0.614 µM | 1.45 µM | 0.00858 µM | 0.237 µM | 0.691 µM | 1.85 µM | 0.229 µM | 0.853 µM | 1.02 µM | 2.81 µM | 0.0573 µM | 0.762 µM

Source: PubChem BioAssay (NCI)
